Measured values published in paper PMC5362474 (Oncotarget, 2017).

Legend:
HepG2 cells = assay: MTT proliferation assay on HepG2 cells; format: cell-based; conditions: Homo sapiens
Method: (§1) MTT assay was then applied at 24 h, 48 h. […] However, all the compounds were active against Bel-7402, HepG2, A549 and HeLa cells to some extent. […] Before we began to design these compounds, we carefully studied these references. […] Hu C T, et al., Wang SY, et al. and Xie B, et al. reported that HepG2 was inhibited by inhibiting c-Met/HGF signaling pathway. […] Further research works on activities are currently under investigation and will be reported in due course. […] Proliferation of cells was evaluated by MTT assay. Cells were inoculated at 1.0 × 10^4 cells/mL with 200 μL in each well of 96-well plate and allowed to adhere to the plates overnight. […] After removal of the medium, cells were treated with 150 μL of DMSO and shaken for 15 min to completely dissolve the formazan crystals. The absorbances at 590 nm of the dissolved solutions were detected using a SpectraMAX190 microplate reader (Molecular Devices, USA).

[1] = biological target: T1, recombinant human c-Met residues 974-end (Homo sapiens, UniProt P08581); assay: Inhibition of c-Met kinase (TR-FRET); format: biochemical; conditions: for inhibition at 0.19 µM / inhibition at 0.39 µM / inhibition at 0.78 µM / inhibition at 1.56 µM / inhibition at 3.12 µM / inhibition at 6.25 µM / inhibition at 12.5 µM / inhibition at 25 µM / inhibition at 50 µM / inhibition at 100 µM: read-out: Inhibitory rate on c-Met kinase; for inhibition at 12.5 µM: 12.50 μM; for IC50: TR-FRET, read-out: IC50 against c-Met kinase; for c-Met Inhibition rate (%): concentration not given
T1 construct: recombinant human c-Met residues 974-end; 6His; purchased Millipore
Method: The inhibitions of c-Met kinase were investigated referred to a published literature. The IC50 values were detected using TR-FRET. 50 nM 6 His-tagged recombinant human c-Met residues 974-end (Millipore) was cultured in medium containing 2.5 m mol/L MnCl2, 10 m mol/L MgCl2, 20 m mol/L Tris, 2 m mol/L DTT and 0.01% Tween 20 with 5 m mol/L ATP and 200 n mol/L 5FAM-KKK -[…]-NH2 with 25 μL at room temperature for 60 min. Compounds were made up to 100 μM solutions and were tested with 10 concentration gradients by two times dilutions. Each group was tested for three times Reactions were termined by IMAP stop solution. Plates were incubated for an overnight and analyzed by using AiphaQuest.

A549 cells = assay: MTT proliferation assay on A549 cells; format: cell-based; conditions: Homo sapiens
Method: as §1

Bel-7402 cells = assay: MTT proliferation assay on Bel-7402 cells; format: cell-based; conditions: Homo sapiens
Method: as §1

Hela cells = assay: MTT proliferation assay on HeLa cells; format: cell-based; conditions: Homo sapiens
Method: as §1

T1 sequence (P08581 974-1390 limits assumed): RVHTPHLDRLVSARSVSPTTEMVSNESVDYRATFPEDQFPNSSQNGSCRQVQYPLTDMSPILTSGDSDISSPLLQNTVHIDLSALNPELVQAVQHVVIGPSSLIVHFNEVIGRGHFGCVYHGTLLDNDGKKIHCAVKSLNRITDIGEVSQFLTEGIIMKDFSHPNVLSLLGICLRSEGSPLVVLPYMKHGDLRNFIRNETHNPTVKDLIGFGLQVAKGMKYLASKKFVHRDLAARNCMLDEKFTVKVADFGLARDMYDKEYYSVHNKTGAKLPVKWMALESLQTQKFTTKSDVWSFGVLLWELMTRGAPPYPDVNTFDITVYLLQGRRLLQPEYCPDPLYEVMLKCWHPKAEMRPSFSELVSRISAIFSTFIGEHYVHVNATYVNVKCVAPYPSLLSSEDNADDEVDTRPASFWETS

## CC(C)=C1C/C=C(\C)CC/C=C(\C)CC1=O [Compound 1, germacrone, reference compound]
HepG2 cells; 24 h
  IC50: 170 ± 2.07 µM
HepG2 cells; 48 h
  IC50: 175 ± 1.88 µM
[1]
  inhibition at 0.19 µM: 23.4 ± 0.33%
  inhibition at 0.39 µM: 39.1 ± 0.45%
  inhibition at 0.78 µM: 47 ± 0.55%
  inhibition at 1.56 µM: 58.8 ± 0.61%
  inhibition at 3.12 µM: 65.4 ± 0.67%
  inhibition at 6.25 µM: 69.2 ± 0.77%
  inhibition at 12.5 µM: 73.7 ± 0.89%
  inhibition at 25 µM: 77.5 ± 0.97%
  inhibition at 50 µM: 82.1 ± 1.21%
  inhibition at 100 µM: 88 ± 1.01%
  IC50: 1.15 µM
  c-Met Inhibition rate (%): 27%
A549 cells; 24 h
  IC50: 180 ± 2.14 µM
A549 cells; 48 h
  IC50: 177 ± 1.87 µM
Bel-7402 cells; 24 h
  IC50: 173.5 ± 1.53 µM
Bel-7402 cells; 48 h
  IC50: 177 ± 1.97 µM
Hela cells; 24 h
  IC50: 160.7 ± 1.54 µM
Hela cells; 48 h
  IC50: 168 ± 1.81 µM

## CC(C)=C1C/C=C(\C)CC/C=C(\C)CC1OC(=O)c1cccc(C)c1 (centres unmarked) [Compound 3c, (3E,7E)-3,7-dimethyl-10-(propan-2-ylidene)cyclodeca-3,7-dien-1-yl-3-methylbenzoate]
HepG2 cells; 24 h
  IC50: 70.2 ± 0.87 µM
HepG2 cells; 48 h
  IC50: 67.84 ± 0.48 µM
[1]
  inhibition at 0.19 µM: 33.8 ± 0.45%
  inhibition at 0.39 µM: 42.6 ± 0.51%
  inhibition at 0.78 µM: 48 ± 0.62%
  inhibition at 1.56 µM: 59.6 ± 0.66%
  inhibition at 3.12 µM: 64.5 ± 0.73%
  inhibition at 6.25 µM: 70 ± 0.81%
  inhibition at 12.5 µM: 73.79 ± 0.69%
  inhibition at 25 µM: 78.9 ± 0.87%
  inhibition at 50 µM: 83.7 ± 0.95%
  inhibition at 100 µM: 87.4 ± 1.2%
  IC50: 0.83 µM
  c-Met Inhibition rate (%): 47%
A549 cells; 24 h
  IC50: 88.52 ± 0.53 µM
A549 cells; 48 h
  IC50: 87.2 ± 0.94 µM
Bel-7402 cells; 24 h
  IC50: 75.5 ± 1.05 µM
Bel-7402 cells; 48 h
  IC50: 78.55 ± 0.51 µM
Hela cells; 24 h
  IC50: 84.1 ± 0.71 µM
Hela cells; 48 h
  IC50: 82.54 ± 0.64 µM

## CC(C)=C1C/C=C(\C)CC/C=C(\C)CC1O (centres unmarked) [Compound 2, (3E,7E)-3,7-dimethyl-10-(propan-2-ylidene)cyclodeca-3,7-dienol]
HepG2 cells; 24 h
  IC50: 155 ± 1.75 µM
HepG2 cells; 48 h
  IC50: 161.5 ± 1.32 µM
[1]
  inhibition at 0.19 µM: 20 ± 0.27%
  inhibition at 0.39 µM: 34.9 ± 0.37%
  inhibition at 0.78 µM: 43.1 ± 0.52%
  inhibition at 1.56 µM: 55.2 ± 0.61%
  inhibition at 3.12 µM: 59.88 ± 0.53%
  inhibition at 6.25 µM: 64.16 ± 0.64%
  inhibition at 12.5 µM: 69.98 ± 0.59%
  inhibition at 25 µM: 74.21 ± 0.69%
  inhibition at 50 µM: 78.2 ± 0.88%
  inhibition at 100 µM: 81.2 ± 0.94%
  IC50: 1.77 µM
  c-Met Inhibition rate (%): 23%
A549 cells; 24 h
  IC50: 177 ± 1.8 µM
A549 cells; 48 h
  IC50: 185 ± 1.99 µM
Bel-7402 cells; 24 h
  IC50: 167 ± 1.91 µM
Bel-7402 cells; 48 h
  IC50: 166 ± 1.83 µM
Hela cells; 24 h
  IC50: 157.3 ± 1.47 µM
Hela cells; 48 h
  IC50: 163 ± 1.73 µM

## CC(C)=C1C/C=C(\C)CC/C=C(\C)CC1OC(=O)c1ccc(C)cc1 (centres unmarked) [Compound 3b, (3E,7E)-3,7-dimethyl-10-(propan-2-ylidene)cyclodeca-3,7-dien-1-yl-4-methylbenzoate]
HepG2 cells; 24 h
  IC50: 68.2 ± 0.69 µM
HepG2 cells; 48 h
  IC50: 71.5 ± 0.82 µM
[1]
  inhibition at 0.19 µM: 35.6 ± 0.44%
  inhibition at 0.39 µM: 46.9 ± 0.51%
  inhibition at 0.78 µM: 54.47 ± 0.47%
  inhibition at 1.56 µM: 63.4 ± 0.66%
  inhibition at 3.12 µM: 67.05 ± 0.59%
  inhibition at 6.25 µM: 72.56 ± 0.67%
  inhibition at 12.5 µM: 77.8 ± 0.81%
  inhibition at 25 µM: 81.24 ± 0.77%
  inhibition at 50 µM: 86 ± 0.93%
  inhibition at 100 µM: 88.8 ± 1.11%
  IC50: 0.56 µM
  c-Met Inhibition rate (%): 56%
A549 cells; 24 h
  IC50: 84.85 ± 0.71 µM
A549 cells; 48 h
  IC50: 81.9 ± 0.88 µM
Bel-7402 cells; 24 h
  IC50: 75.9 ± 0.96 µM
Bel-7402 cells; 48 h
  IC50: 74.2 ± 0.83 µM
Hela cells; 24 h
  IC50: 83.64 ± 0.73 µM
Hela cells; 48 h
  IC50: 83.78 ± 0.76 µM

## CC(C)=C1C/C=C(\C)CC/C=C(\C)CC1OC(=O)/C=C\c1ccccc1 (centres unmarked) [Compound 3e, (Z)-(3E,7E)-3,7-dimethyl-10-(propan-2-ylidene)cyclodeca-3,7-dien-1-yl-3-phenylacrylate]
HepG2 cells; 24 h
  IC50: 72.48 ± 0.64 µM
HepG2 cells; 48 h
  IC50: 69.98 ± 0.68 µM
[1]
  inhibition at 0.19 µM: 28.28 ± 0.22%
  inhibition at 0.39 µM: 42.75 ± 0.35%
  inhibition at 0.78 µM: 48.01 ± 0.39%
  inhibition at 1.56 µM: 61.4 ± 0.64%
  inhibition at 3.12 µM: 67.5 ± 0.77%
  inhibition at 6.25 µM: 70.31 ± 0.59%
  inhibition at 12.5 µM: 75.7 ± 0.78%
  inhibition at 25 µM: 80 ± 0.91%
  inhibition at 50 µM: 85.3 ± 0.87%
  inhibition at 100 µM: 88.4 ± 0.99%
  IC50: 0.87 µM
  c-Met Inhibition rate (%): 41%
A549 cells; 24 h
  IC50: 90.11 ± 0.75 µM
A549 cells; 48 h
  IC50: 88.21 ± 0.81 µM
Bel-7402 cells; 24 h
  IC50: 75.9 ± 0.81 µM
Bel-7402 cells; 48 h
  IC50: 79.2 ± 0.89 µM
Hela cells; 24 h
  IC50: 86.55 ± 0.8 µM
Hela cells; 48 h
  IC50: 88.24 ± 0.84 µM

## CC(=O)OC1C/C(C)=C/CC/C(C)=C/CC1=C(C)C (centres unmarked) [Compound 3a, (3E,7E)-3,7-dimethyl-10-(propan-2-ylidene)cyclodeca-3,7-dien-1-yl-acetate]
HepG2 cells; 24 h
  IC50: 147.7 ± 1.47 µM
HepG2 cells; 48 h
  IC50: 152 ± 1.71 µM
[1]
  inhibition at 0.19 µM: 26.3 ± 0.37%
  inhibition at 0.39 µM: 40 ± 0.43%
  inhibition at 0.78 µM: 47.2 ± 0.57%
  inhibition at 1.56 µM: 58.5 ± 0.69%
  inhibition at 3.12 µM: 65 ± 0.74%
  inhibition at 6.25 µM: 69 ± 0.76%
  inhibition at 12.5 µM: 74.6 ± 0.81%
  inhibition at 25 µM: 79.3 ± 0.85%
  inhibition at 50 µM: 84.3 ± 0.93%
  inhibition at 100 µM: 86.9 ± 0.97%
  IC50: 1.06 µM
  c-Met Inhibition rate (%): 31%
A549 cells; 24 h
  IC50: 162.2 ± 1.55 µM
A549 cells; 48 h
  IC50: 169 ± 1.74 µM
Bel-7402 cells; 24 h
  IC50: 157.3 ± 1.33 µM
Bel-7402 cells; 48 h
  IC50: 166.2 ± 1.51 µM
Hela cells; 24 h
  IC50: 149.3 ± 1.33 µM
Hela cells; 48 h
  IC50: 153 ± 1.65 µM

## CC(C)=C1C/C=C(\C)CC/C=C(\C)CC1OC(=O)c1ccc(C(F)(F)F)cc1 (centres unmarked) [Compound 3d, (3E,7E)-3,7-dimethyl-10-(propan-2-ylidene)cyclodeca-3,7-dien-1-yl-4-(trifluoromethyl)benzoate]
HepG2 cells; 24 h
  IC50: 74.7 ± 0.99 µM
HepG2 cells; 48 h
  IC50: 78.85 ± 0.77 µM
[1]
  inhibition at 0.19 µM: 31.56 ± 0.27%
  inhibition at 0.39 µM: 40.88 ± 0.35%
  inhibition at 0.78 µM: 47.08 ± 0.44%
  inhibition at 1.56 µM: 59.03 ± 0.57%
  inhibition at 3.12 µM: 64.22 ± 0.59%
  inhibition at 6.25 µM: 69 ± 0.74%
  inhibition at 12.5 µM: 75.5 ± 0.88%
  inhibition at 25 µM: 80.6 ± 0.84%
  inhibition at 50 µM: 85.4 ± 0.96%
  inhibition at 100 µM: 87.7 ± 0.95%
  IC50: 0.92 µM
  c-Met Inhibition rate (%): 38%
A549 cells; 24 h
  IC50: 93.48 ± 0.79 µM
A549 cells; 48 h
  IC50: 95.9 ± 0.97 µM
Bel-7402 cells; 24 h
  IC50: 80.1 ± 1.19 µM
Bel-7402 cells; 48 h
  IC50: 77.56 ± 0.77 µM
Hela cells; 24 h
  IC50: 91.25 ± 0.87 µM
Hela cells; 48 h
  IC50: 93.31 ± 0.9 µM
